Values joined by “and” are separate entries in the source; they are usually repeats but may differ in a detail not shown here. Identical values can stand only once. Like-named read-outs stand apart in the source and are kept apart here.
Columns and labels:
OxaD [1] = biological target: T1, OxaD (Penicillium oxalicum, UniProt A0A1B2TT15); settings: for kred2: slow phase
Experimental: To remove oxygen from the enzyme sample, OxaD (or D63A) was degassed along with buffer solutions as previously described. The stopped-flow was incubated with an anaerobic solution of 0.6 μM glucose oxidase and 100 mM D-glucose in 100 mM sodium acetate, pH 5.0, overnight to remove any oxygen.[27] […] For all stopped-flow experiments, the concentrations listed are after mixing in the instrument. […] Absorbance changes between 200 and 800 nm were recorded. The decrease in absorbance at 446 nm was fit to eq 2 to obtain the observed rate constant of the fast phase (k1) and of the slow phase (k2). A446 is the absorbance at 446 nm, A is the amplitude of the phase, t is time, and C is the final absorbance at 446 nm. […] Oxygenated buffer was prepared by bubbling 30 cc/min (pressure regulated by a flowmeter) of 100% oxygen into the OxaD activity buffer on an ice bath for 1 h while stirring. The resulting oxygen solution has a concentration of 1.2 mM.[27] Oxidation of reduced OxaD or D63A was investigated at various concentrations of oxygen (100–600 μM) at room temperature. To obtain lower oxygen concentrations, the saturated oxygen solution was diluted with anaerobic buffer. Absorbance changes at 200–800 nm were recorded. Absorbance changes at 365 nm were fit to eq 4 to account for the absorbance increase and decrease. In eq 4, A365 is the absorbance values at 365 nm, A1 and A2 are the changes in absorbance related to a single phase, k1 is the rate of absorbance increase, and k2 is the rate of absorbance decrease. Absorbance increases at 446 nm were fit to eq 5, where A446 is the absorbance values at 446 nm, kobs is the observed rate and AΔ is the change in absorbance. In both eq 4 and eq 5, A0 is the initial absorbance and t is time. The bimolecular rate constant was determined using a linear equation. All data fitting was carried out with KaleidaGraph. Spectral deconvolution was carried out using a three-step model that accounted for the reduced enzyme–substrate complex, the enzyme-intermediate complex, and the final oxidized enzyme.

OxaD D63A [2] = biological target: T2, OxaD D63A (Penicillium oxalicum, UniProt A0A1B2TT15, D63A); assay: Anaerobic stopped-flow, reductive-half reaction, D63A mutant; type: biochemical, Penicillium oxalicum F30; settings: for kred2: slow phase
OxaD D63A [3] = biological target: T2, OxaD D63A
Experimental: (§2) OxaD D63A (D63A from hereon) was expressed and purified using the same procedures as those described for OxaD.
(§3) All oxygen consumption assays were performed using an Oxygraph+ system from Hansatech Instruments (Norfolk, U.K.). Assays were performed in 25 mM HEPES/Na^+ buffer, pH 7.6, 50 mM NaCl, 1% DMSO (750 μL total volume). […] Equation 1 was used to determine the turnover number (kcat) and Michaelis–Menten constant (KM).

[4] = set-up: method as in ref 18−20; settings: ref 18−20; cited from earlier work
OxaD D63A [5] = assay: Anaerobic stopped-flow, reductive-half reaction, D63A mutant; type: biochemical, Penicillium oxalicum F30; settings: D63A vs OxaD
OxaD D63A [6] = settings: D63A vs OxaD
Experimental: as §2, §3

[7] = test system: human breast and leukemia cancer cell lines; set-up: method as in ref 18−20; settings: ref 18−20; cited from earlier work
oxidized D63A = biological target: T3, oxidized D63A (Penicillium oxalicum, UniProt A0A1B2TT15, D63A); type: binding, Penicillium oxalicum F30; settings: 15 μM oxidized D63A, roquefortine C 0–40 μM, pH 7.6; read-out: apparent KD
T3 sequence (A0A1B2TT15 1-467 D63A): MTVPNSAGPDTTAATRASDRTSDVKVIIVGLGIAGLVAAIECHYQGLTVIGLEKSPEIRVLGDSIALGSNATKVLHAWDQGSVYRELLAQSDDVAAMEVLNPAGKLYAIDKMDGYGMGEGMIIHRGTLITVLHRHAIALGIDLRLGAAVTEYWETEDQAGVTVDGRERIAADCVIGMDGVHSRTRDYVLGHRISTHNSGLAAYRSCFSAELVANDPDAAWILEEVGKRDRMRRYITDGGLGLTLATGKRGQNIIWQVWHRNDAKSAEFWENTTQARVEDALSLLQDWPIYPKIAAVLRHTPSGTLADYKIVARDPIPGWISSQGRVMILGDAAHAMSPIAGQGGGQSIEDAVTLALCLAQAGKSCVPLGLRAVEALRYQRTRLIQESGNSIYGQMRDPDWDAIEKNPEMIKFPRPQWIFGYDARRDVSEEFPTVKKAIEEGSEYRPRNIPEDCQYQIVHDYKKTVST
Experimental: (§1) These methods were adapted from Abdelwahab et al., 2016.[29] […] The instrument was blanked with each concentration of roquefortine C prior to recording the enzyme–substrate complex spectra. Each solution was 200 μL and contained 15 μM of enzyme, and various roquefortine C concentrations (0–40 μM). Prior to recording the spectra, the enzyme was incubated on ice for 5 min with the substrate and the spectra were measured immediately following the incubation.

oxidized OxaD = biological target: T4, oxidized OxaD (Penicillium oxalicum, UniProt A0A1B2TT15); type: binding, Penicillium oxalicum F30; settings: 15 μM oxidized OxaD, roquefortine C 0–40 μM, pH 7.6; read-out: apparent KD
T4 sequence (A0A1B2TT15 1-467): T3 sequence (A0A1B2TT15 1-467 D63A)
Experimental: as §1

OxaD [8] = biological target: T1, OxaD; set-up: method as in PMID 27505044; settings: previous characterization; cited from earlier work
[9] = test system: cytochrome P450s in the liver and kidneys; set-up: method as in PMID 16019806; settings: likely through binding to the heme in the active site; cited from earlier work
mice = test system: mice; set-up: method as in ref 11−14; settings: mice exposed to roquefortine C; ref 11−14; cited from earlier work
OxaD [10] = biological target: T1, OxaD; assay: Oxygen consumption assay, steady-state kinetics; settings: OxaD 1 μM; pH 7.6, 1% DMSO; roquefortine C fixed 100 μM for cosubstrates; NADPH fixed 500 μM when roquefortine C varied
Experimental: All oxygen consumption assays were performed using an Oxygraph+ system from Hansatech Instruments (Norfolk, U.K.). Assays were performed in 25 mM HEPES/Na^+ buffer, pH 7.6, 50 mM NaCl, 1% DMSO (750 μL total volume).

[11] = OxaD 10 μM, 10 μM roquefortine C, fast phase, apparent
[12] = OxaD 10 μM, 10 μM roquefortine C
[13] = D63A 10 μM, 10 μM roquefortine C, fast phase
[14] = D63A 10 μM, 10 μM roquefortine C

NADH
kred1 (OxaD [1]; [11]): 43 ± 0.30 s^–1
kred2 (OxaD [1]; [12]): 0.34 ± 0.01 s^–1
increase in KD(app) relative to NADPH (OxaD [1]; OxaD, NADH vs NADPH): ~3 fold

(R)-[4-^2H]-NADPH
kred1 (OxaD D63A [2]; [13]): 2.4 ± 0.08 s^–1
kred2 (OxaD D63A [2]; [14]): 0.17 ± 0.01 s^–1
^Dkred (kinetic isotope effect on rate of reduction) (OxaD D63A [2]; D63A, 4 mM synthesized NADPH vs 4 mM (R)-[4-^2H]-NADPH): ^Dkred = 3.60 ± 0.13
^Dkcat (kinetic isotope effect on kcat) (OxaD D63A [3]; D63A, synthesized NADPH vs (R)-[4-^2H]-NADPH): ^Dkcat = 3.40 ± 0.38
kred1 (OxaD [1]; [11]): 9.1 ± 0.10 s^–1
kred2 (OxaD [1]; [12]): 0.24 ± 0.05 s^–1

C=CC(C)(C)[C@]12C=C(O)C(=O)N3/C(=C/c4cnc[nH]4)C(=O)N[C@@]31N(O)c1ccccc12 [glandicoline B]
antibacterial effects [4]: antibacterial effects

NADPH
kred1 (OxaD D63A [2]; [13]): 9.0 ± 0.20 s^–1
kred2 (OxaD D63A [2]; [14]): 0.18 ± 0.01 s^–1
kred1/KD(app) (OxaD D63A [2]; D63A, 10 μM roquefortine C): 7.2 × 10^3 ± 1.4 × 10^3 M^–1·s^–1
kred1 (OxaD D63A [2]; D63A, No roquefortine C): 0.17 ± 0.01 s^–1
decrease in kred compared to OxaD (OxaD D63A [5]): ~5 fold
increase in KM compared to OxaD (OxaD D63A [6]): 25 fold
kred1 (OxaD [1]; [11]): 48 ± 0.80 s^–1
kred2 (OxaD [1]; [12]): 0.39 ± 0.01 s^–1
kred1/KD(app) (OxaD [1]; OxaD, 10 μM roquefortine C): 9.0 × 10^4 ± 2.0 × 10^3 M^–1·s^–1
kred1 (OxaD [1]; OxaD, No roquefortine C): 0.40 ± 0.10 s^–1

Melegranin
anticancer properties [7]: anticancer properties

NADPH [Synthesized NADPH]
kred1 (OxaD D63A [2]; [13]): 8.6 ± 0.14 s^–1
kred2 (OxaD D63A [2]; [14]): 0.20 ± 0.04 s^–1
kred1 (OxaD [1]; [11]): 45 ± 0.70 s^–1
kred2 (OxaD [1]; [12]): 0.32 ± 0.02 s^–1

C=CC(C)(C)[C@]12C=C(OC)C(=O)N3/C(=C/c4c[nH]cn4)C(=O)N[C@@]31N(OC)c1ccccc12 [oxaline]
anticancer properties [7]: anticancer properties
antibacterial effects [4]: antibacterial effects

C=CC(C)(C)[C@@]12C[C@H]3C(=O)N/C(=C/c4c[nH]cn4)C(=O)N3[C@@H]1Nc1ccccc12 [Roquefortine C]
enhancement of kred in the presence of substrate (OxaD D63A [2]; D63A, with vs without substrate): ~50 fold
Kd (oxidized D63A): 6.4 ± 0.2 µM
Kd (oxidized OxaD): 6.9 µM and ~6.9 µM
Km (OxaD D63A [3]; pH 7.6): 3.5 ± 0.9 µM
increase in kcat compared to OxaD (OxaD D63A [6]; oxygen consumption): ~2 fold
Km (OxaD [8]): 0.071 µM
kcat (OxaD [8]): 0.017 s^–1
effect on cytochrome P450s [9]: deactivate cytochrome P450s in the liver and kidneys
toxic effects in mice (mice): cytotoxic, immunotoxic, neurotoxic, and lung inflammatory effects
Km (OxaD [10]): 3 ± 1 µM
kcat (OxaD [10]): 0.93 ± 0.07 s^–1
enhancement of kred by presence of roquefortine C (OxaD [1]; OxaD, with vs without roquefortine C): 120 fold

Source: article PMC11154958, “Mechanism of Nitrone Formation by a Flavin-Dependent Monooxygenase” (Biochemistry, 2024)
